Test results reported in patent US20070027181A1, “Benzylisoquinoline derivative- or bisbenzylisoquinoline derivative-containing psychotropic agent, analgesic and/or antiphlogistic, and health food” (EDUCATION CENTER OF TRADITIONAL, priority 2004, published 2007).

Legend:
mice [1] = experiment: thiopental sleep-enhancing test; format: in vivo, Male ICR mice; conditions: 50 mg/kg i.p. 15 minutes before thiopental 60 mg/kg i.p.
Experimental: Actions on thiopental sleep by various compounds were evaluated. Thiopental dissolved in physiological saline was administered intraperitoneally into mice at a dose of 60 mg/kg. […] The time when the righting reflex of the mice disappeared after thiopental administration was designated as sleep-induction time and the time when the righting reflex was restored was designated as awakening time, and total sleep time was calculated from these values.

mice [2] = experiment: forced swimming test (antidepressive action); format: in vivo, Male ICR mice; conditions: 100 mg/kg i.p., 6-minute period
Experimental: (§1) In the following Examples, all extracts and drugs used were dissolved in physiological saline before use for i.p. administration and the dose was 0.1 ml of physiological saline per 10 g of mouse body weight in either case. All extracts and drugs were suspended in physiological saline containing 1% sodium carboxymethylcellulose before use for oral administration and the dose was 0.1 ml of 1% sodium carboxymethylcellulose-containing physiological saline suspension per 10 g of mouse body weight in either case. Male ICR mice (Japan SLC) having a body weight of 25 to 30 g were used in the tests below unless otherwise stated, and were fed in advance at a room temperature of 23±1° C. and a relative humidity of 55±5% in the environment of a cycle of 12-hour-light from 7 a.m. to 7 p.m. and 12-hour-dark from 7 p.m. to 7 a.m. for 3 to 5 days. The mice were allowed to have water and feed freely.
Forced swimming tests were conducted according to the method of Porsolt et al. A mouse was placed in a cylindrical glass water tank of 10 cm in diameter and 25 cm in height (water temperature: 23° C.) filled with water to a depth of 10 cm and forced to swim therein. […] Each mouse was forced to swim 15 and 30 minutes after administration, and the immobile times during the 6-minute periods immediately after forced swimming were determined. […]

mice [3] = experiment: elevated plus-maze test (antianxiety action); format: in vivo, Male ICR mice; conditions: 100 mg/kg i.p., 30 minutes after administration
Experimental: In the following Examples, all extracts and drugs used were dissolved in physiological saline before use for i.p. administration and the dose was 0.1 ml of physiological saline per 10 g of mouse body weight in either case. All extracts and drugs were suspended in physiological saline containing 1% sodium carboxymethylcellulose before use for oral administration and the dose was 0.1 ml of 1% sodium carboxymethylcellulose-containing physiological saline suspension per 10 g of mouse body weight in either case. […]
An elevated plus-maze (Neuroscience Inc.) consisting of 2 arms without high walls and 2 arms enclosed by high walls, which were crossing perpendicular to each other, was used for evaluation. A mouse was placed on the platform at the center in a position facing toward an arm without walls, and the number of times the mouse entered into both arms and the period of the mouse staying in the arms without walls were determined during a period of 5 minutes. The results were evaluated by the ratio (%) of the number of the mouse entering into the arms without walls to the total number of entering into both arms and by the ratio (%) of the period of the mouse staying in the arms without walls to the test period. […]

mice [4] = experiment: glass ball-covering behavior test (obsessive compulsive disorders); format: in vivo, Male ICR mice
Experimental: as §1
In evaluating glass ball-covering behavior, wood chip for breeding (beta chip) (Oriental Yeast Co., Ltd.) was placed in the transparent cage described in Example 3 to a depth of 5 cm, on which 20 glass balls (diameter: 1.5 cm) were placed evenly.
Twenty-one mice were grouped into three groups each of seven mice, to which 25 mg/kg of neferine hydrochloride (treatment group 6-1), 50 mg/kg of the same (treatment group 6-2), and physiological saline (negative control group) were administered intraperitoneally, respectively. A mouse was placed in the cage 15 minutes after administration, and the number of the glass balls not covered with the wood chip was counted by visual observation at an interval of 10 minutes. The number of balls having ⅔ or more of the surface thereof being embedded in the wood chip when the cage was observed from above was counted as the criteria for judgment.

mice [5] = experiment: tail flick test; format: in vivo, Male ICR mice; conditions: 15 minutes after administration, cut off time 10 seconds
Experimental: as §1, with “The mice were allowed to have water and feed freely.” left out
A tail flick test is a method in which, when radiant heat stimulation is locally added to a part of a tail 1 to 2 cm away from the tail root part of a mouse, a reaction of raising a tail as a provisional pain reaction is manifested, and anti-invasion action is determined by utilizing this reaction.
Seven to nine mice per group were used. […] The reaction that a mouse raised a tail upon addition of radiant heat was regarded as a provisional pain reaction, and a time until its manifestation (latency time) was measured. […]

mice [6] = experiment: histamine-induced paw edema test; format: in vivo, Male ICR mice; conditions: 100 mg/kg i.p. 30 minutes before histamine 10 μg; 12 minutes after histamine
Experimental: as §1
Six mice per group were used. […] The thickness of the right hind paw was measured immediately before histamine administration and 12 minutes after histamine administration. The thickness immediately before administration was subtracted from the thickness of the paw after histamine administration, and this was adopted as a thickness of paw edema. As apparent from TABLE 18, paw edema due to histamine was suppressed by neferine. […]

[7] = Seibu et al., Journal of Natural Products 49 (1986); no specific data; cited from earlier work

## COc1ccc(C[C@@H]2c3cc(Oc4cc(C[C@@H]5c6cc(OC)c(OC)cc6CCN5C)ccc4O)c(OC)cc3CCN2C)cc1 [neferine]
Mice [1]
  Total sleep time: 100 min
Mice [2]; 15 minutes after administration
  Immobile time (sec) After 15 minutes: 165 s
Mice [2]; 30 minutes after administration
  Immobile time (sec) After 30 minutes: 170 s
Mice [3]; entries into arms without walls / total entries
  Invasion times (%): 70%
Mice [3]; period in arms without walls / test period
  Staying period (%): 33%
Mice [4]; 25 mg/kg i.p.
  Number of glass balls covered with wood chip After 20 minutes: 7
  Number of glass balls covered with wood chip After 30 minutes: 10
Mice [4]; 25 mg/kg i.p., placed in cage 15 minutes after administration
  Number of glass balls covered with wood chip After 10 minutes: 4
Mice [4]; 50 mg/kg i.p.
  Number of glass balls covered with wood chip After 10 minutes: 3
  Number of glass balls covered with wood chip After 20 minutes: 6
  Number of glass balls covered with wood chip After 30 minutes: 9
Mice [5]; 50 mg/kg i.p.
  % MPE: 5.0 ± 2.30%
Mice [5]; 100 mg/kg i.p.
  % MPE: 15.6 ± 2.89 %
Mice [6]
  Thickness of paw edema (mm): 0.32 ± 0.03 mm
[7]
  antihypertensive action: exhibited an antihypertensive action
